Assay results reported in patent US20040058903A1, “Benzamide compounds as apo b secretion inhibitors” (priority 2000, published 2004).

How the values were obtained:
[1] = test system: ddY-mice; assay: Lipids lowering effect on ddY-mice; type: in vivo; details: male ddY-mice, oral dose 32 mg/kg, 2 hr after administration, percent relative to baseline (0 hr); for Cholesterol (% of 0 hr) 2 hr: plasma total-cholesterol; for Triglyceride (% of 0 hr) 2 hr: plasma triglyceride
Source text: Test 2: Lipids Lowering Effect on ddY-Mice
Male ddy-mice were housed in temperature- and humidity-controlled rooms and fed with laboratory chow. The animals were randomized according to their body weight and deprived of food just before the experiment. A blood sample (baseline blood sample) was collected from the retro orbital venous plexus before administration of the test drug, and then the animals were orally dosed with the test drug in a vehicle (aqueous solution of 0.5% methylcellulose). Blood samples were drawn at 2 hours after drug administration for the measurement of cholesterol and triglyceride.
Plasma total-cholesterol and plasma triglyceride were determined by conventional enzyme-methods using commercially available kits. The cholesterol CII-Test Wako (Wako Pure Chemical Industries, Ltd.) was used for the measurement of cholesterol, and the triglyceride E-test Wako (Wako Pure Chemical Industries, Ltd.) was used for the measurement of triglyceride.
Lipids lowering effects were shown in percent relative to the baseline level (level at 0 hr).

[2] = test system: Apo B secretion; assay: Measurement of inhibition of Apo B secretion (HepG2 cells, ELISA); type: cell-based; details: 15-hour incubation, 0.1% DMSO treated cells as controls; for inhibition at 1 µM: Homo sapiens, 10^−6 M
Protocol: Test 1: Measurement of Inhibition of Apo B Secretion
HepG2 cells were seeded in Eagles medium containing 10% fetal calf serum (FCS) at a density of 30000 cells/well in 96-well plates and allowed to grow for 3 days before treatment. At this time, the medium was replaced with fresh medium containing 0.1% dimethyl sulfoxide (DMSO) and the indicated concentrations of a test compound. After 15-hour incubation, the amount of Apo B and Apo AI accumulated in the media was determined by ELISA.
The assay was carried out at room temperature. A flat bottomed micro ELISA plate (manufactured by Nunc) was coated with an anti Apo B monoclonal antibody solution ([…] in 0.05% carbonate buffer, pH 9.6) by adding the antibody solution at a volume of 100 μl per well. After 1-hour incubation on a plate mixer, the unbound materials were removed by washing the well 3 times with a washing buffer (phosphate buffered saline, pH 7.2 containing 0.1% bovine serum albumin and 0.05% Tween-20). Then 20 μl of […] and 100 μl of a solution of peroxidase coupled anti Apo B antibody were added. After 1-hour incubation on a plate mixer, washing was performed 3 times to remove the unbound materials. A freshly prepared substrate solution (2.5 mg/ml ortho-phenylene diamine and 0.018% H2Oz in 0.11 M Na2HPO4-0.044 M sodium citrate buffer, pH 5.4) at a volume of 200 μl was then added to each well. After 20-minute incubation, the enzyme reaction was terminated by adding 50 μl of 0.5 M sulfuric acid. Absorbance of each well was determined at 490 nm using a microplate reader. Apo B concentration was calculated from a standard curve generated from purified Apo B standard that was run in parallel in the same plate. Inhibition of Apo B secretion by the test compound is calculated taking […] treated cells as controls.
Measurement of Apo AI was performed similar to that of Apo B, except for diluting the sample 11-fold with a dilution buffer (phosphate buffered saline, pH 7.2 containing 0.5% bovine serum albumin and 0.05% Tween-20). […]

Structure (SMILES) | Cholesterol (% of 0 hr) 2 hr [1] | Triglyceride (% of 0 hr) 2 hr [1] | inhibition at 1 µM [2] [%] | Inhibition of Apo B secretion at 10^−6 M (%) [2] [%]
O=C(Nc1ccc(NCCc2ccccn2)cc1)c1ccccc1-c1ccc(C(F)(F)F)cc1 [Example 59, N-(4-{[2-(2-pyridinyl)ethyl]amino}phenyl)-4′-(trifluoromethyl)-1,1′-biphenyl-2-carboxamide] | 77 % of 0 hr | 15 % of 0 hr | – | –
Nc1cccc(CCCc2ccc(NC(=O)c3ccccc3-c3ccc(C(F)(F)F)cc3)cc2)n1 [Example 44, N-{4-[3-(6-amino-2-pyridinyl)propyl]phenyl}-4′-(trifluoromethyl)-1,1′-biphenyl-2-carboxamide] | – | – | 100 | –
O=C(Nc1ccc(NCCc2ccccn2)cc1)c1ccccc1Nc1cccc(C(F)(F)F)c1 [Example 64, N-(4-{[2-(2-pyridinyl)ethyl]amino}phenyl)-2-[3-(trifluoromethyl)-anilino]benzamide] | – | – | 100 | –
O=C(Cc1ccccn1)Nc1ccc(NC(=O)c2ccccc2-c2ccc(C(F)(F)F)cc2)cc1 [Example 65, N-{4-[(2-pyridinylacetyl)amino]phenyl]-4′-(trifluoromethyl)-1,1′-biphenyl-2-carboxamide] | 83 % of 0 hr | 36 % of 0 hr | – | 92.2
O=C(Nc1ccc(CCCc2ccccn2)cc1)c1ccccc1-c1ccc(C(F)(F)F)cc1 [Example 25, N-{4-[3-(2-pyridinyl)propyl]phenyl}-4′-(trifluoromethyl)-1,1′-biphenyl-2-carboxamide] | 78 % of 0 hr | 23 % of 0 hr | – | –
